Like-named read-outs stand apart in the source and are kept apart here.
Experiments:
PIM1 = settings: read-out: Preclinical IC50, PIM1; cited from earlier work
PIM2 = settings: read-out: Preclinical IC50, PIM2; cited from earlier work
PIM3 = settings: read-out: Preclinical IC50, PIM3; cited from earlier work
R/R AML = R/R AML (n = 30); Other (n = 9); cited from earlier work
MF patients = settings: cited from earlier work
R/R MF = settings: cited from earlier work
[1] = tested on: human erythroid progenitors (CFU-E, BFU-E); assay: Colony forming cell assay, human erythroid progenitor (CFU-E, BFU-E) proliferation; format: cell-based; settings: 336 h, single agent, 14 days, CFU-E and BFU-E
Protocol: (§1) Clonogenic progenitors of human erythroid (CFU-E, BFU-E), granulocyte-monocyte (CFU-GM), and multipotential (CFU-GEMM) lineages were assessed in a semi-solid methylcellulose-based media formulation containing rhIL-3 (10 ng/mL), rhGM-SCF (10 ng/mL), rhSCF (50 ng/mL), and Epo (3 U/mL).
(§2) In addition, 5-FU was evaluated at 1.0, 0.1 and 0.01 μg/mL as a positive control for toxicity.
(§3) Normal human bone marrow light density cells (lot #0210901), derived from normal bone marrow, (Lonza, Maryland) and qualified at ReachBio, were stored at −152° C. until required for the assay. On the day of the experiment, the cells were thawed rapidly, diluted in 10 mL of Iscove's modified Dulbecco's medium containing 10% fetal bovine serum (IMDM+10% FBS) and washed by centrifugation (approximately 1500 r.p.m. for 10 minutes at room temperature). The supernatant was discarded and the cell pellets were resuspended in a known volume of IMDM+10% FBS. A cell count (3% glacial acetic acid) and viability assessment (trypan blue exclusion test) was performed for the bone marrow sample.
Clonogenic progenitors of human megakaryocyte (CFU-Mk) were assessed in a collagen-based media formulation containing rhIL-3 (10 ng/mL), rhIL-6 (10 ng/mL), and Tpo (50 ng/mL). Clonogenic progenitors of the human erythroid (CFU-E and BFU-E), myeloid (CFU-GM), and megakaryocyte (CFU-Mk) lineages were set up in the media formulations described above. Individually, the test compounds were added to the medium to give the final desired concentrations (10, 3.33, 1, 0.333, 0.1, 0.0333, 0.01 and 0.00333 μM). […]
(§4) Human myeloid and erythroid progenitor assays were initiated at 1.2×10^4 cells per culture (lot #0210921) and the human megakaryocyte assays were initiated at 1.2×10^5 cells per culture (lot #0210921). Following 14 days in culture, erythroid and myeloid colonies were assessed microscopically in situ and scored by trained personnel. […] The colonies were assessed microscopically and scored by trained personnel and divided into the following categories based on size: CFU-Mk (3-20), CFU-Mk (21-49), and CFU-Mk (≥50).
(§5) Statistical analysis: The mean±standard deviation of three replicate cultures was calculated for both erythroid and myeloid progenitors. […]
(§6) Erythroid (CFU-E and BFU-E) and myeloid (CFU-GM) colony enumeration was performed by trained personnel. In addition, the distribution of colony types as well as general colony and cellular morphology was analyzed. The variance in colony number detected in replicate cultures was representative of the historical coefficient of variation for colony enumeration using these types of assays. The number and distribution of colonies detected in the solvent control (0.1% DMSO for single agents) was no different from the standard control (containing no compound and no DMSO). […]

[2] = tested on: human myeloid progenitors (CFU-GM); assay: Colony forming cell assay, human myeloid (granulocyte-monocyte, CFU-GM) progenitor proliferation; format: cell-based; settings: Homo sapiens, 336 h; single agent, 14 days, CFU-GM
Protocol: as §1, §2, §3
(§7) Clonogenic progenitors of human megakaryocyte (CFU-Mk) were assessed in a collagen-based media formulation containing rhIL-3 (10 ng/mL), rhIL-6 (10 ng/mL), and Tpo (50 ng/mL). Clonogenic progenitors of the human erythroid (CFU-E and BFU-E), myeloid (CFU-GM), and megakaryocyte (CFU-Mk) lineages were set up in the media formulations described above. Individually, the test compounds were added to the medium to give the final desired concentrations (10, 3.33, 1, 0.333, 0.1, 0.0333, 0.01 and 0.00333 μM). […] Solvent control cultures (containing no compound but 0.1% DMSO) as well as standard controls (containing no compound and no DMSO) were also initiated. Once introduced into the matrices, the tubes were vortexed to ensure an equal distribution throughout.
(§8) Human myeloid and erythroid progenitor assays were initiated at 1.2×10^4 cells per culture (lot #0210921) and the human megakaryocyte assays were initiated at 1.2×10^5 cells per culture (lot #0210921). Following 14 days in culture, erythroid and myeloid colonies were assessed microscopically in situ and scored by trained personnel. The colonies were divided into the following categories based on size and morphology: CFU-E, BFU-E, CFU-GM, and CFU-GEMM. The human megakaryocyte cultures were transferred from the 35 mm dishes to labeled glass slides, fixed with methanol/acetone fixative, and then stained with anti-human CD41 antibody and an alkaline phosphate detection system according to manufacturers' instructions. The colonies were assessed microscopically and scored by trained personnel and divided into the following categories based on size: CFU-Mk (3-20), CFU-Mk (21-49), and CFU-Mk (≥50).
(§9) Statistical analysis: The mean±standard deviation of three replicate cultures was calculated for both erythroid and myeloid progenitors. Two-tailed standard t-tests were performed to assess if there was a difference in the number of colonies generated between solvent control and treated cultures. Due to the potential subjectivity of colony enumeration, a p value of less than 0.01 is deemed significant. To calculate the concentration of 50% inhibition of colony growth (IC50) for each compound, a dose response curve was generated plotting the log of the compound concentration versus the percentage of control colony growth using GraphPad Prism 9 software.
as §6

[3] = tested on: human megakaryocyte progenitors (CFU-Mk); assay: Colony forming cell assay, human megakaryocyte progenitor (CFU-Mk) proliferation; format: cell-based
Protocol: as §2, §3, §7, §8, §9
Other than the test compounds being combined, the only change from the method in Example 1 was a 0.2% DMSO solvent control instead of 0.1% DMSO. The results are provided in FIGS. 2A-4C (FIGS. 2A-2C are human megakaryocytes (CFU-MK), FIGS. 3A-3C are human erythroid (CFU-E, BFU-E), and FIGS. 4A-4C are human granulocyte-monocyte (CFU-GM).

[4] = tested on: human myeloid, erythroid and megakaryocyte progenitors; assay: Colony forming cell assays taken together (erythroid, myeloid, megakaryocyte progenitors); format: cell-based; settings: single agents compared
Protocol: as §1, §2
Normal human bone marrow light density cells (lot #0210901), derived from normal bone marrow, (Lonza, Maryland) and qualified at ReachBio, were stored at −152° C. until required for the assay. […]
Clonogenic progenitors of human megakaryocyte (CFU-Mk) were assessed in a collagen-based media formulation containing rhIL-3 (10 ng/mL), rhIL-6 (10 ng/mL), and Tpo (50 ng/mL). […]
as §4, §5

[5] = JAKARTA, monotherapy 400 mg QD, N = 96
[6] = ≥50 × 10^9/L PLT, regimen RUX+Paraclisib
[7] = COMFORT 1, monotherapy 5-25 mg BID, N = 155

Q: What does the source list for `C[C@H]1CN(c2c(NC(=O)c3ccc(F)c(-c4c(F)cccc4F)n3)cnc3c2CC[C@H]3O)C[C@@H](N)[C@@H]1O` [INCB053914]?
A: IC50 (PIM1): 0.24 nM; IC50 (PIM2): 30 nM; IC50 (PIM3): 0.12 nM; Hem AE, G3+ anemia (R/R AML): G3+ Anemia (18%); Hem AE, G3+ thrombocytopenia (R/R AML): (13%); Non-hem AE, ALT/AST increased (R/R AML): (36%),; Non-hem AE, diarrhea (R/R AML): diarrhea (21%), rash; Non-hem AE, nausea (R/R AML): nausea (23%),; Non-hem AE, rash (R/R AML): (15%)

Q: For `Cc1cnc(Nc2ccc(OCCN3CCCC3)cc2)nc1Nc1cccc(S(=O)(=O)NC(C)(C)C)c1` [Fedratinib, fedratinib], which “TEAE Anemia, All Gr” value (MF patients; [5]) is on record?
A: Its value is 99%.

Q: And the “TEAE Anemia, ≥3 Gr” value (MF patients; [5])?
A: The value was 43%.

Q: And the “TEAE Neutropenia, All Gr” value (MF patients; [5])?
A: The value was 28%.

Q: And the “TEAE Neutropenia, ≥3 Gr” value (MF patients; [5])?
A: The value was 8%.

Q: And the “TEAE Thrombocytopenia, All Gr” value (MF patients; [5])?
A: Its value is 63%.

Q: What about the “TEAE Thrombocytopenia, ≥3 Gr” value (MF patients; [5]) of the same molecule?
A: Its value is 17%.

Q: With `Cc1noc2c1-c1ccccc1C(c1ccc(Cl)cc1)=N[C@H]2CC(N)=O` [Pelabresib, pelabresib] as the molecule, how does the “SVR35 at Week 24” value (R/R MF; ≥75 × 10^9/L PLT, monotherapy) read?
A: The value was 11%.

Q: And the “TSS50 at Week 24” value (R/R MF; ≥75 × 10^9/L PLT, monotherapy)?
A: Its value is 28%.

Q: Which “SVR35 at Week 24” value (R/R MF; [6]) does the source give for `CCOc1c([C@H](C)n2nc(C)c3c(N)ncnc32)cc(Cl)c(F)c1[C@@H]1CNC(=O)C1` [Parsaclisib, parsaclisib] here?
A: The value was 3%.

Q: And the “TSS50 at Week 24” value (R/R MF; [6])?
A: The value was 11%.

Q: What does the source list for `N#CC[C@H](C1CCCC1)n1cc(-c2ncnc3[nH]ccc23)cn1` [ruxolitinib]?
A: IC50 [1]: 110 nM; IC50 [2]: 100 nM; IC50 ([3]; Homo sapiens, single agent, read-out: IC50, total CFU-Mk (megakaryocyte progenitor proliferation)): 200 nM; concentrations at which total CFU-Mk was (significantly) inhibited ([3]; single agent, vs solvent control): ≥ 0.033 µM; relative potency of inhibition of megakaryocyte progenitors ([3]; single agents compared): most potent; relative potency of inhibition of progenitor proliferation [4]: most potent; TEAE Anemia, All Gr (MF patients; [7]): 96%; TEAE Anemia, ≥3 Gr (MF patients; [7]): 45%; TEAE Neutropenia, All Gr (MF patients; [7]): 19%; TEAE Neutropenia, ≥3 Gr (MF patients; [7]): 7%; TEAE Thrombocytopenia, All Gr (MF patients; [7]): 70%; TEAE Thrombocytopenia, ≥3 Gr (MF patients; [7]): 13%
